Measured values taken from ChEMBL document CHEMBL1641435, “DR396, an apoptotic DNase γ inhibitor, attenuates high mobility group box 1 release from apoptotic cells” (Bioorg Med Chem, 2011).
Calls of active or inactive are those of the source. The rule behind the calls is not given here.

Experiments:
HeLa S3 = test: Inhibition of HMGB1 release in human staurosporine-induced HeLaS3 cells at 100 uM treated 1 hr before staurosporine challenge measured after 24 hrs by Western blotting; type: functional
Deoxyribonuclease gamma [1] = target: T1, Deoxyribonuclease gamma (Homo sapiens, UniProt Q13609); test: (§1) Inhibition of human recombinant DNase gamma expressed in Rosetta DE3 cells assessed as increase in acid soluble DNA after 30 mins; type: cell-based
T1 sequence (Q13609 whole entry): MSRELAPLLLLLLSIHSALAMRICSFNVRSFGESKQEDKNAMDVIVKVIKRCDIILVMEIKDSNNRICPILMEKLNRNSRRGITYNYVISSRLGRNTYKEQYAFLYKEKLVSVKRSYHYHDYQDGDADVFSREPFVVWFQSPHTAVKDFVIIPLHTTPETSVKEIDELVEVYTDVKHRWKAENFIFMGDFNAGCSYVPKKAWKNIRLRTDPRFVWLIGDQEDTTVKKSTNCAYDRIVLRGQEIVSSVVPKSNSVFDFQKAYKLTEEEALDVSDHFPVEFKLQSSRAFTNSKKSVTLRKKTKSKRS

[2] = target: T2, Deoxyribonuclease gamma (Homo sapiens) (UniProt Q13609); test: as §1; type: cell-based
T2 sequence (whole entry): T1 sequence (Q13609 whole entry)

[3] = target: T2, Deoxyribonuclease gamma (Homo sapiens); settings: HeLa S3; 30 uM
Description: Inhibition of DNase gamma-mediated nucleosomal DNA fragmentation expressed in human staurosporine-induced HeLaS3 cells at 30 uM treated 1 hr before staurosporine challenge measured after 24 hrs by Western blotting

Deoxyribonuclease gamma [4] = target: T1, Deoxyribonuclease gamma; test: Inhibition of DNase gamma-mediated HMGB1 release expressed in human staurosporine-induced HeLaS3 cells treated 1 hr before staurosporine challenge measured after 24 hrs by Western blotting

| SMILES | inhibition at 100 µM (HeLa S3) | IC50 (Deoxyribonuclease gamma [1]) | inhibition [2] | inhibition (HeLa S3) | inhibition [3] | IC50 (Deoxyribonuclease gamma [4]) |
| --- | --- | --- | --- | --- | --- | --- |
| O=S(=O)(O)c1cc(O)c2c(O)c(/N=N/c3cccc4ccccc34)c(S(=O)(=O)O)cc2c1 [PONTACYL VIOLET 6R] | 50% | 16.1 µM | Dose-dependent effect | – | – | – |
| O=C(N[C@H](CC1CCCCC1)C(=O)O)OCC1c2ccccc2-c2ccccc21 | 20% | 34.5 µM | Dose-dependent effect | – | – | – |
| O=C(O)c1ccc(Nc2nc(Cl)nc(Cl)n2)cc1-c1c2ccc(=O)cc-2oc2cc(O)ccc12 | – | 3.2 µM | Dose-dependent effect | Active | 50% | 30 µM |
